Measured values as given in US11123337B2, “4-methylsulfonyl-substituted piperidine urea compounds” (MYOKARDIA, INC., priority 2015, dated 2021).

Target: bovine cardiac myosin (Bos taurus, UniProt Q9BE39)
Test: Myosin activation assay (PK/LDH-coupled ATPase, bovine cardiac myofibrils)
Format: biochemical
Details: AC20 = concentration at which total response is increased by twenty percent
Outline: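 Skinned bovine cardiac myofibrils (1 mg/mL) in PIPES/MgCl2 buffer pH 6.8 at free Ca2+ giving ~50% (pCa ~6) or <5% (pCa 10) activation, with 50 μM ATP and 3.3% DMSO. ATPase rate from NADH absorbance at 340 nm (PK/LDH coupling) over 15 min at ambient temperature. AC20/AC50 from a four-parameter fit of DMSO-normalised rates.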

Chain of bovine cardiac myosin (Q9BE39 whole entry): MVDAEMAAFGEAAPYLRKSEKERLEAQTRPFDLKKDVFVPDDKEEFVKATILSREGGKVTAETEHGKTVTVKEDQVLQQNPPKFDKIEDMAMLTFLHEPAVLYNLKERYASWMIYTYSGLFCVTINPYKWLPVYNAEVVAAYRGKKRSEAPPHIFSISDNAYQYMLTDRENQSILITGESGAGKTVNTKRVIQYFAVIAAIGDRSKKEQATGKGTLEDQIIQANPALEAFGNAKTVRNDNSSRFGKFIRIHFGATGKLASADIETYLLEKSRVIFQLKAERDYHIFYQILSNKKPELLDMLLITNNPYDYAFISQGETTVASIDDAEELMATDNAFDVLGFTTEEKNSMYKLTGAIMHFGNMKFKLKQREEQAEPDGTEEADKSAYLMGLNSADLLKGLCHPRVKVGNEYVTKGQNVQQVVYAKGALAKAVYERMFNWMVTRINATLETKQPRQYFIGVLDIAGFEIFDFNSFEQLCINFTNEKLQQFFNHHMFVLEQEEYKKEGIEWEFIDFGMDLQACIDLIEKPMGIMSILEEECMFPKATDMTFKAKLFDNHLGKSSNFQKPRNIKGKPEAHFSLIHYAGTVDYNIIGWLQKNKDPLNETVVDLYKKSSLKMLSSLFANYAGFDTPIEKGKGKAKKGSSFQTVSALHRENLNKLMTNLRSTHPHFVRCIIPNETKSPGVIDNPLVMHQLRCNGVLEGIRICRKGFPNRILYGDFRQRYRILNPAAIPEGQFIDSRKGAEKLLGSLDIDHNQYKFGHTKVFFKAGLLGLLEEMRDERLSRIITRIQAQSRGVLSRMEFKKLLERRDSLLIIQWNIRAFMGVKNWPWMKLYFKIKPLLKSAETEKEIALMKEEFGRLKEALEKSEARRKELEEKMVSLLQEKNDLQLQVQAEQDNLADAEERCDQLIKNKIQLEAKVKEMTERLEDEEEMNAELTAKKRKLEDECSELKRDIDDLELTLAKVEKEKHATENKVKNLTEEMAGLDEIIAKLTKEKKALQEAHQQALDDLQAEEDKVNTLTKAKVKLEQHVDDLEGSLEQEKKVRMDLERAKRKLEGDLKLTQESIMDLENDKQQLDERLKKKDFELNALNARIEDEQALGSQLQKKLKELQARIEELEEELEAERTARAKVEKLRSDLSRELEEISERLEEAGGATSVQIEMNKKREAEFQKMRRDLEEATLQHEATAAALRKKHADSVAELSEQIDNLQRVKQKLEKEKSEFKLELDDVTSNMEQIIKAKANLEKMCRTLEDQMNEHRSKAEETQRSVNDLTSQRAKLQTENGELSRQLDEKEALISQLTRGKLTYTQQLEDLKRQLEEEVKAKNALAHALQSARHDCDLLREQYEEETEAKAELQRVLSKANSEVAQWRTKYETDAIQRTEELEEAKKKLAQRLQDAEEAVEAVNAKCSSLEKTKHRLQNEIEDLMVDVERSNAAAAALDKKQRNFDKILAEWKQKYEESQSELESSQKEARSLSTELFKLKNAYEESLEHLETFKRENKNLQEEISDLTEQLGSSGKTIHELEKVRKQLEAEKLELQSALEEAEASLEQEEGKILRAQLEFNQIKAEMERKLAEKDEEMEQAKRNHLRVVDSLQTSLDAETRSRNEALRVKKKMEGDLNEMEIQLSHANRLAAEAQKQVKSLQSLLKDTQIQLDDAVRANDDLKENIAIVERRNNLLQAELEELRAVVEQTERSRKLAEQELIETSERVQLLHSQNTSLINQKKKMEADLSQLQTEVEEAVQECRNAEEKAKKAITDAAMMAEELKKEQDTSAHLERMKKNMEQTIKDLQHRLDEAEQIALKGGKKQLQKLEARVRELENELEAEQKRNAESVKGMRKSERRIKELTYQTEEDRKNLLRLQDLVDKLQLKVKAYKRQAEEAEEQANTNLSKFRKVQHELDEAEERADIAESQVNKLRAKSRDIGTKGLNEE
Chain of bovine cardiac myosin (P85100 whole entry partner): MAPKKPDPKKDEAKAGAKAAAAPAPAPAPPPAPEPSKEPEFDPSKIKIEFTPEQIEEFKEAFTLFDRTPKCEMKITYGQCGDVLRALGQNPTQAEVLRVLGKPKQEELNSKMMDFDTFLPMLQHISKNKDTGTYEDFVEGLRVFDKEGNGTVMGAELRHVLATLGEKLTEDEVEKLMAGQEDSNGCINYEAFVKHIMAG
Chain of bovine cardiac myosin (Q3SZE5 whole entry partner): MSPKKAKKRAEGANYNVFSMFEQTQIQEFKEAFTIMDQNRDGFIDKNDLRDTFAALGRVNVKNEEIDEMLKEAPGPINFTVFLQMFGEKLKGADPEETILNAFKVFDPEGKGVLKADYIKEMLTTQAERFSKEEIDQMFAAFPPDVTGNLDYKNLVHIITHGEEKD

SMILES: Cn1nc(C(F)(F)F)cc1S(=O)(=O)C(C)(F)C1CCN(C(=O)Nc2ccnnc2)CC1 (stereo not shown) [Compound 277, 4-(1-fluoro-1-((1-methyl-3-(trifluoromethyl)-1H-pyrazol-5-yl)sulfonyl)ethyl)-N-(pyridazin-4-yl)piperidine-1-carboxamide]
- Myosin Activation (AC20): +++ (+++ represents myosin activation value AC20 < 2 μM)

SMILES: CC(C)(C)OC(=O)n1cc(NC(=O)N2CCC(C(C)(F)S(=O)(=O)c3cccc(F)c3)CC2)cn1 (stereo not shown) [Compound 237, tert-butyl 4-(4-(1-fluoro-1-((3-fluorophenyl)sulfonyl)ethyl)piperidine-1-carboxamido)-1H-pyrazole-1-carboxylate]
- Myosin Activation (AC20): + (+ represents myosin activation value AC20 > 5 μM)

SMILES: C[C@@](F)(C1CCN(C(=O)Nc2ccnnc2)CC1)S(=O)(=O)c1cccc(F)c1 [Compound 279, (S)-4-(1-fluoro-1-((3-fluorophenyl)sulfonyl)ethyl)-N-(pyridazin-4-yl)piperidine-1-carboxamide]
- Myosin Activation (AC20): + (+ represents myosin activation value AC20 > 5 μM)

SMILES: COc1ccc(Cl)c(S(=O)(=O)C(F)(F)C2CCN(C(=O)Nc3ccnnc3)CC2)c1 [Compound 72, 4-(((2-chloro-5-methoxyphenyl)sulfonyl)difluoromethyl)-N-(pyridazin-4-yl)piperidine-1-carboxamide]
- Myosin Activation (AC20): +++ (+++ represents myosin activation value AC20 < 2 μM)

SMILES: COc1ccccc1S(=O)(=O)C(F)(F)C1CCN(C(=O)Nc2ccnnc2)CC1 [Compound 62, 4-(difluoro((2-methoxyphenyl)sulfonyl)methyl)-N-(pyridazin-4-yl)piperidine-1-carboxamide]
- Myosin Activation (AC20): + (+ represents myosin activation value AC20 > 5 μM)

SMILES: Cn1nc(C2CC2)cc1S(=O)(=O)C(F)(F)C1CCN(C(=O)Nc2ccnnc2)CC1 [Compound 24, 4-(((3-Cyclopropyl-1-methyl-1H-pyrazol-5-yl)sulfonyl)difluoromethyl)-N-(pyridazin-4-yl)piperidine-1-carboxamide]
- Myosin Activation (AC20): ++ (++ represents myosin activation value AC20 from 2 μM-5 μM)

SMILES: Cc1cc(NC(=O)N2CCC([C@](C)(F)S(=O)(=O)c3cc(C(F)(F)F)nn3C)CC2)ccn1 [Compound 232, (R)-4-(1-fluoro-1-((1-methyl-3-(trifluoromethyl)-1H-pyrazol-5-yl)sulfonyl)ethyl)-N-(2-methylpyridin-4-yl)piperidine-1-carboxamide]
- Myosin Activation (AC20): +++ (+++ represents myosin activation value AC20 < 2 μM)

SMILES: CC(C)(C1CCN(C(=O)Nc2ccncc2F)CC1)S(=O)(=O)c1cccc(F)c1 [Compound 177, 4-(2-((3-fluorophenyl)sulfonyl)propan-2-yl)-N-(3-fluoropyridin-4-yl)piperidine-1-carboxamide]
- Myosin Activation (AC20): + (+ represents myosin activation value AC20 > 5 μM)

SMILES: C[C@](F)(C1CCN(C(=O)Nc2ccnnc2)CC1)S(=O)(=O)c1cccc(F)c1 [Compound 278, (R)-4-(1-fluoro-1-((3-fluorophenyl)sulfonyl)ethyl)-N-(pyridazin-4-yl)piperidine-1-carboxamide]
- Myosin Activation (AC20): +++ (+++ represents myosin activation value AC20 < 2 μM)

SMILES: CC(F)(C1CCN(C(=O)Nc2ccnnc2)CC1)S(=O)(=O)c1ccc(C(F)(F)F)nc1 (stereo not shown) [Compound 262, 4-(1-fluoro-1-((6-(trifluoromethyl)pyridin-3-yl)sulfonyl)ethyl)-N-(pyridazin-4-yl)piperidine-1-carboxamide]
- Myosin Activation (AC20): +++ (+++ represents myosin activation value AC20 < 2 μM)

SMILES: CCn1nccc1S(=O)(=O)C(C)(C)C1CCN(C(=O)Nc2ccncc2)CC1 [Compound 184, 4-(2-((1-ethyl-1H-pyrazol-5-yl)sulfonyl)propan-2-yl)-N-(pyridin-4-yl)piperidine-1-carboxamide]
- Myosin Activation (AC20): ++ (++ represents myosin activation value AC20 from 2 μM-5 μM)

SMILES: Cc1cc(S(=O)(=O)C(F)(F)C2CCN(C(=O)Nc3ccnnc3)CC2)n(C)n1 [Compound 23, 4-(((1,3-Dimethyl-1H-pyrazol-5-yl)sulfonyl)difluoromethyl)-N-(pyridazin-4-yl)piperidine-1-carboxamide]
- Myosin Activation (AC20): ++ (++ represents myosin activation value AC20 from 2 μM-5 μM)

SMILES: O=C(Nc1ccnnc1)N1CCC(C2(S(=O)(=O)c3ccc(OC(F)(F)F)cc3)CC2)CC1 [Compound 205, N-(pyridazin-4-yl)-4-(1-((4-(trifluoromethoxy)phenyl)sulfonyl)cyclopropyl)piperidine-1-carboxamide]
- Myosin Activation (AC20): +++ (+++ represents myosin activation value AC20 < 2 μM)

SMILES: N#Cc1ccc(S(=O)(=O)C(F)(F)C2CCN(C(=O)Nc3ccnnc3)CC2)c(Cl)c1 [Compound 76, 4-(((2-chloro-4-cyanophenyl)sulfonyl)difluoromethyl)-N-(pyridazin-4-yl)piperidine-1-carboxamide]
- Myosin Activation (AC20): ++ (++ represents myosin activation value AC20 from 2 μM-5 μM)

SMILES: Cc1ncc(NC(=O)N2CCC(C(C)(C)S(=O)(=O)c3cccc(F)c3)CC2)cn1 [Compound 141, 4-(2-((3-fluorophenyl)sulfonyl)propan-2-yl)-N-(2-methylpyrimidin-5-yl)piperidine-1-carboxamide]
- Myosin Activation (AC20): + (+ represents myosin activation value AC20 > 5 μM)

SMILES: O=C(Nc1cncs1)N1CCC(C2(S(=O)(=O)c3cccc(F)c3)CC2)CC1 [Compound 37, 4-(1-((3-fluorophenyl)sulfonyl)cyclopropyl)-N-(thiazol-5-yl)piperidine-1-carboxamide]
- Myosin Activation (AC20): +++ (+++ represents myosin activation value AC20 < 2 μM)

SMILES: Cn1nc(C(F)F)cc1S(=O)(=O)C(C)(F)C1CCN(C(=O)Nc2ccnnc2)CC1 (stereo not shown) [Compound 17, 4-(1-((3-(difluoromethyl)-1-methyl-1H-pyrazol-5-yl)sulfonyl)-1-fluoroethyl)-N-(pyridazin-4-yl)piperidine-1-carboxamide]
- Myosin Activation (AC20): +++ (+++ represents myosin activation value AC20 < 2 μM)

SMILES: Cn1cnc(S(=O)(=O)C(F)(F)C2CCN(C(=O)Nc3ccnnc3)CC2)c1 [Compound 84, 4-(difluoro((1-methyl-1H-imidazol-4-yl)sulfonyl)methyl)-N-(pyridazin-4-yl)piperidine-1-carboxamide]
- Myosin Activation (AC20): + (+ represents myosin activation value AC20 > 5 μM)

SMILES: Cn1nc(C(F)(F)F)cc1S(=O)(=O)C(C)(C)C1CCN(C(=O)Nc2ccnc(F)c2)CC1 [Compound 127, N-(2-fluoropyridin-4-yl)-4-(2-((1-methyl-3-(trifluoromethyl)-1H-pyrazol-5-yl)sulfonyl)propan-2-yl)piperidine-1-carboxamide]
- Myosin Activation (AC20): ++ (++ represents myosin activation value AC20 from 2 μM-5 μM)

SMILES: Cc1cc(C(F)(F)F)ccc1S(=O)(=O)C(F)(F)C1CCN(C(=O)Nc2ccnnc2)CC1 [Compound 65, 4-(difluoro((2-methyl-4-(trifluoromethyl)phenyl)sulfonyl)methyl)-N-(pyridazin-4-yl)piperidine-1-carboxamide]
- Myosin Activation (AC20): ++ (++ represents myosin activation value AC20 from 2 μM-5 μM)

SMILES: CC(F)(C1CCN(C(=O)Nc2ccno2)CC1)S(=O)(=O)c1cccc(F)c1 (stereo not shown) [Compound 11, 4-(1-Fluoro-1-((3-fluorophenyl)sulfonyl)ethyl)-N-(isoxazol-5-yl)piperidine-1-carboxamide]
- Myosin Activation (AC20): ++ (++ represents myosin activation value AC20 from 2 μM-5 μM)

SMILES: [2H]C([2H])([2H])n1cc(S(=O)(=O)[C@](F)(C2CCN(C(=O)Nc3ccon3)CC2)C([2H])([2H])[2H])c(C(F)F)n1 [Compound 305, (S)-4-(1-((3-(difluoromethyl)-1-(methyl-d3)-1H-pyrazol-4-yl)sulfonyl)-1-fluoroethyl-2,2,2-d3)-N-(isoxazol-3-yl)piperidine-1-carboxamide]
- Myosin Activation (AC20): + (+ represents myosin activation value AC20 > 5 μM)

SMILES: Cc1ccc(S(=O)(=O)C(F)(F)C2CCN(C(=O)Nc3ccnnc3)CC2)cn1 [Compound 50, 4-(difluoro((6-methylpyridin-3-yl)sulfonyl)methyl)-N-(pyridazin-4-yl)piperidine-1-carboxamide]
- Myosin Activation (AC20): ++ (++ represents myosin activation value AC20 from 2 μM-5 μM)

SMILES: Cc1ccc(F)cc1S(=O)(=O)C(F)(F)C1CCN(C(=O)Nc2ccnnc2)CC1 [Compound 63, 4-(difluoro((5-fluoro-2-methylphenyl)sulfonyl)methyl)-N-(pyridazin-4-yl)piperidine-1-carboxamide]
- Myosin Activation (AC20): ++ (++ represents myosin activation value AC20 from 2 μM-5 μM)

SMILES: Cc1cc(NC(=O)N2CCC([C@](C)(F)S(=O)(=O)c3cn(C)nc3C(F)F)CC2)ccn1 [Compound 233, (R)-4-(1-((3-(difluoromethyl)-1-methyl-1H-pyrazol-4-yl)sulfonyl)-1-fluoroethyl)-N-(2-methylpyridin-4-yl)piperidine-1-carboxamide]
- Myosin Activation (AC20): +++ (+++ represents myosin activation value AC20 < 2 μM)

SMILES: CC(C)(C1CCN(C(=O)Nc2cncc(F)c2)CC1)S(=O)(=O)c1cccc(F)c1 [Compound 119, 4-(2-((3-fluorophenyl)sulfonyl)propan-2-yl)-N-(5-fluoropyridin-3-yl)piperidine-1-carboxamide]
- Myosin Activation (AC20): ++ (++ represents myosin activation value AC20 from 2 μM-5 μM)

SMILES: Cn1cc(S(=O)(=O)C(C)(C)C2CCN(C(=O)Nc3ccc(F)nc3)CC2)c(C(F)F)n1 [Compound 117, 4-(2-((3-(difluoromethyl)-1-methyl-1H-pyrazol-4-yl)sulfonyl)propan-2-yl)-N-(6-fluoropyridin-3-yl)piperidine-1-carboxamide]
- Myosin Activation (AC20): ++ (++ represents myosin activation value AC20 from 2 μM-5 μM)

SMILES: Cn1cncc1S(=O)(=O)C(C)(C)C1CCN(C(=O)Nc2ccnnc2)CC1 [Compound 148, 4-(2-((1-methyl-1H-imidazol-5-yl)sulfonyl)propan-2-yl)-N-(pyridazin-4-yl)piperidine-1-carboxamide]
- Myosin Activation (AC20): + (+ represents myosin activation value AC20 > 5 μM)
